{"source": "patent US9290777B2", "about": "“Putative cytokinin receptor and methods for use thereof” (NATIONAL UNIVERSITY OF SINGAPORE, priority 2007, dated 2016)", "test_system": "STM", "assay": "qRT-PCR of cytokinin responsive gene after BA pulse, fold change vs untreated wild type", "format": "cell-based, Arabidopsis thaliana", "note": "Entries after “also recorded” stand apart in the source; their conditions may differ."}
{"smiles": "c1ccc(CNc2ncnc3nc[nH]c23)cc1", "note": "[benzyladenine]", "values": [{"measurement": "STM transcripts in OE lines compared to untreated wild type", "setting": "5 μM BA, 1 h, OE lines (e.g. OE1, OE12), listed as BA", "value": "less than a two fold change; also recorded: no significant difference"}, {"measurement": "STM fold change", "setting": "BA 0.01 μM, 5 min, AS1, ↑ up", "value": "3.23↑"}, {"measurement": "STM fold change", "setting": "BA 0.01 μM, 5 min, AS8, ↑ up", "value": "5.2↑"}, {"measurement": "STM fold change", "setting": "BA 0.01 μM, 5 min, AS21, ↑ up", "value": "7.1↑"}, {"measurement": "STM fold change", "setting": "BA 0.01 μM, 5 min, OE1, ↓ down", "value": "3.41↓"}, {"measurement": "STM fold change", "setting": "BA 0.01 μM, 5 min, OE12, ↓ down", "value": "4.97↓"}, {"measurement": "STM fold change", "setting": "BA 0.01 μM, 5 min, OE18, ↓ down", "value": "6.23↓"}, {"measurement": "STM fold change", "setting": "BA 0.01 μM, 5 min, Wild type, ↑ up", "value": "2.45↑"}, {"measurement": "STM fold change", "setting": "BA 0.01 μM, 15 min, AS1, ↑ up", "value": "3.67↑"}, {"measurement": "STM fold change", "setting": "BA 0.01 μM, 15 min, AS8, ↑ up", "value": "5.58↑"}, {"measurement": "STM fold change", "setting": "BA 0.01 μM, 15 min, AS21, ↑ up", "value": "7.48↑"}, {"measurement": "STM fold change", "setting": "BA 0.01 μM, 15 min, OE1, ↓ down", "value": "3.23↓"}, {"measurement": "STM fold change", "setting": "BA 0.01 μM, 15 min, OE12, ↓ down", "value": "4.65↓"}, {"measurement": "STM fold change", "setting": "BA 0.01 μM, 15 min, OE18, ↓ down", "value": "6.02↓"}, {"measurement": "STM fold change", "setting": "BA 0.01 μM, 15 min, Wild type, ↑ up", "value": "2.54↑"}, {"measurement": "STM fold change", "setting": "BA 0.01 μM, 30 min, AS1, ↑ up", "value": "3.91↑"}, {"measurement": "STM fold change", "setting": "BA 0.01 μM, 30 min, AS8, ↑ up", "value": "5.95↑"}, {"measurement": "STM fold change", "setting": "BA 0.01 μM, 30 min, AS21, ↑ up", "value": "7.69↑"}, {"measurement": "STM fold change", "setting": "BA 0.01 μM, 30 min, OE1, ↓ down", "value": "3.01↓"}, {"measurement": "STM fold change", "setting": "BA 0.01 μM, 30 min, OE12, ↓ down", "value": "4.31↓"}, {"measurement": "STM fold change", "setting": "BA 0.01 μM, 30 min, OE18, ↓ down", "value": "5.91↓"}, {"measurement": "STM fold change", "setting": "BA 0.01 μM, 30 min, Wild type, ↑ up", "value": "3.01↑"}, {"measurement": "STM fold change", "setting": "BA 0.01 μM, 1 h, AS1, ↑ up", "value": "4.1↑"}, {"measurement": "STM fold change", "setting": "BA 0.01 μM, 1 h, AS8, ↑ up", "value": "6.06↑"}, {"measurement": "STM fold change", "setting": "BA 0.01 μM, 1 h, AS21, ↑ up", "value": "8.05↑"}, {"measurement": "STM fold change", "setting": "BA 0.01 μM, 1 h, OE1, ↓ down", "value": "2.81↓"}, {"measurement": "STM fold change", "setting": "BA 0.01 μM, 1 h, OE12, ↓ down", "value": "3.96↓"}, {"measurement": "STM fold change", "setting": "BA 0.01 μM, 1 h, OE18, ↓ down", "value": "5.82↓"}, {"measurement": "STM fold change", "setting": "BA 0.01 μM, 1 h, Wild type, ↑ up", "value": "3.2↑"}, {"measurement": "STM fold change", "setting": "BA 0.1 μM, 5 min, AS1, ↑ up", "value": "4.24↑"}, {"measurement": "STM fold change", "setting": "BA 0.1 μM, 5 min, AS8, ↑ up", "value": "6.22↑"}, {"measurement": "STM fold change", "setting": "BA 0.1 μM, 5 min, AS21, ↑ up", "value": "8.21↑"}, {"measurement": "STM fold change", "setting": "BA 0.1 μM, 5 min, OE1, ↓ down", "value": "3.2↓"}, {"measurement": "STM fold change", "setting": "BA 0.1 μM, 5 min, OE12, ↓ down", "value": "3.81↓"}, {"measurement": "STM fold change", "setting": "BA 0.1 μM, 5 min, OE18, ↓ down", "value": "5.79↓"}, {"measurement": "STM fold change", "setting": "BA 0.1 μM, 5 min, Wild type, ↑ up", "value": "3.56↑"}, {"measurement": "STM fold change", "setting": "BA 0.1 μM, 15 min, AS1, ↑ up", "value": "4.49↑"}, {"measurement": "STM fold change", "setting": "BA 0.1 μM, 15 min, AS8, ↑ up", "value": "6.39↑"}, {"measurement": "STM fold change", "setting": "BA 0.1 μM, 15 min, AS21, ↑ up", "value": "8.36↑"}, {"measurement": "STM fold change", "setting": "BA 0.1 μM, 15 min, OE1, ↓ down", "value": "3.14↓"}, {"measurement": "STM fold change", "setting": "BA 0.1 μM, 15 min, OE12, ↓ down", "value": "3.73↓"}, {"measurement": "STM fold change", "setting": "BA 0.1 μM, 15 min, OE18, ↓ down", "value": "5.61↓"}, {"measurement": "STM fold change", "setting": "BA 0.1 μM, 15 min, Wild type, ↑ up", "value": "3.68↑"}, {"measurement": "STM fold change", "setting": "BA 0.1 μM, 30 min, AS1, ↑ up", "value": "4.79↑"}, {"measurement": "STM fold change", "setting": "BA 0.1 μM, 30 min, AS8, ↑ up", "value": "6.63↑"}, {"measurement": "STM fold change", "setting": "BA 0.1 μM, 30 min, AS21, ↑ up", "value": "8.58↑"}, {"measurement": "STM fold change", "setting": "BA 0.1 μM, 30 min, OE1, ↓ down", "value": "2.92↓"}, {"measurement": "STM fold change", "setting": "BA 0.1 μM, 30 min, OE12, ↓ down", "value": "3.49↓"}, {"measurement": "STM fold change", "setting": "BA 0.1 μM, 30 min, OE18, ↓ down", "value": "5.34↓"}, {"measurement": "STM fold change", "setting": "BA 0.1 μM, 30 min, Wild type, ↑ up", "value": "3.85↑"}, {"measurement": "STM fold change", "setting": "BA 0.1 μM, 1 h, AS1, ↑ up", "value": "4.97↑"}, {"measurement": "STM fold change", "setting": "BA 0.1 μM, 1 h, AS8, ↑ up", "value": "6.94↑"}, {"measurement": "STM fold change", "setting": "BA 0.1 μM, 1 h, AS21, ↑ up", "value": "8.87↑"}, {"measurement": "STM fold change", "setting": "BA 0.1 μM, 1 h, OE1, ↓ down", "value": "2.76↓"}, {"measurement": "STM fold change", "setting": "BA 0.1 μM, 1 h, OE12, ↓ down", "value": "3.01↓"}, {"measurement": "STM fold change", "setting": "BA 0.1 μM, 1 h, OE18, ↓ down", "value": "5.01↓"}, {"measurement": "STM fold change", "setting": "BA 0.1 μM, 1 h, Wild type, ↑ up", "value": "3.96↑"}, {"measurement": "STM fold change", "setting": "BA 1.0 μM, 5 min, AS1, ↑ up", "value": "5.53↑"}, {"measurement": "STM fold change", "setting": "BA 1.0 μM, 5 min, AS8, ↑ up", "value": "7.8↑"}, {"measurement": "STM fold change", "setting": "BA 1.0 μM, 5 min, AS21, ↑ up", "value": "8.89↑"}, {"measurement": "STM fold change", "setting": "BA 1.0 μM, 5 min, OE1, ↓ down", "value": "2.86↓"}, {"measurement": "STM fold change", "setting": "BA 1.0 μM, 5 min, OE12, ↓ down", "value": "2.89↓"}, {"measurement": "STM fold change", "setting": "BA 1.0 μM, 5 min, OE18, ↓ down", "value": "4.26↓"}, {"measurement": "STM fold change", "setting": "BA 1.0 μM, 5 min, Wild type, ↑ up", "value": "4.11↑"}, {"measurement": "STM fold change", "setting": "BA 1.0 μM, 15 min, AS1, ↑ up", "value": "5.78↑"}, {"measurement": "STM fold change", "setting": "BA 1.0 μM, 15 min, AS8, ↑ up", "value": "7.93↑"}, {"measurement": "STM fold change", "setting": "BA 1.0 μM, 15 min, AS21, ↑ up", "value": "9.02↑"}, {"measurement": "STM fold change", "setting": "BA 1.0 μM, 15 min, OE1, ↓ down", "value": "2.61↓"}, {"measurement": "STM fold change", "setting": "BA 1.0 μM, 15 min, OE12, ↓ down", "value": "2.56↓"}, {"measurement": "STM fold change", "setting": "BA 1.0 μM, 15 min, OE18, ↓ down", "value": "4.11↓"}, {"measurement": "STM fold change", "setting": "BA 1.0 μM, 15 min, Wild type, ↑ up", "value": "4.36↑"}, {"measurement": "STM fold change", "setting": "BA 1.0 μM, 30 min, AS1, ↑ up", "value": "5.83↑"}, {"measurement": "STM fold change", "setting": "BA 1.0 μM, 30 min, AS8, ↑ up", "value": "7.99↑"}, {"measurement": "STM fold change", "setting": "BA 1.0 μM, 30 min, AS21, ↑ up", "value": "9.25↑"}, {"measurement": "STM fold change", "setting": "BA 1.0 μM, 30 min, OE1, ↓ down", "value": "2.39↓"}, {"measurement": "STM fold change", "setting": "BA 1.0 μM, 30 min, OE12, ↓ down", "value": "2.87↓"}, {"measurement": "STM fold change", "setting": "BA 1.0 μM, 30 min, OE18, ↓ down", "value": "4.01↓"}, {"measurement": "STM fold change", "setting": "BA 1.0 μM, 30 min, Wild type, ↑ up", "value": "4.69↑"}, {"measurement": "STM fold change", "setting": "BA 1.0 μM, 1 h, AS1, ↑ up", "value": "6.21↑"}, {"measurement": "STM fold change", "setting": "BA 1.0 μM, 1 h, AS8, ↑ up", "value": "8.07↑"}, {"measurement": "STM fold change", "setting": "BA 1.0 μM, 1 h, AS21, ↑ up", "value": "9.66↑"}, {"measurement": "STM fold change", "setting": "BA 1.0 μM, 1 h, OE1, ↓ down", "value": "2.11↓"}, {"measurement": "STM fold change", "setting": "BA 1.0 μM, 1 h, OE12, ↓ down", "value": "2.62↓"}, {"measurement": "STM fold change", "setting": "BA 1.0 μM, 1 h, OE18, ↓ down", "value": "3.82↓"}, {"measurement": "STM fold change", "setting": "BA 1.0 μM, 1 h, Wild type, ↑ up", "value": "4.97↑"}, {"measurement": "STM fold change", "setting": "BA 5.0 μM, 5 min, AS1, ↑ up", "value": "6.01↑"}, {"measurement": "STM fold change", "setting": "BA 5.0 μM, 5 min, AS8, ↑ up", "value": "8.46↑"}, {"measurement": "STM fold change", "setting": "BA 5.0 μM, 5 min, AS21, ↑ up", "value": "9.33↑"}, {"measurement": "STM fold change", "setting": "BA 5.0 μM, 5 min, OE1, ↓ down", "value": "2.29↓"}, {"measurement": "STM fold change", "setting": "BA 5.0 μM, 5 min, OE12, ↓ down", "value": "2.49↓"}, {"measurement": "STM fold change", "setting": "BA 5.0 μM, 5 min, OE18, ↓ down", "value": "3.35↓"}, {"measurement": "STM fold change", "setting": "BA 5.0 μM, 5 min, Wild type, ↑ up", "value": "5.62↑"}, {"measurement": "STM fold change", "setting": "BA 5.0 μM, 15 min, AS1, ↑ up", "value": "6.21↑"}, {"measurement": "STM fold change", "setting": "BA 5.0 μM, 15 min, AS8, ↑ up", "value": "8.63↑"}, {"measurement": "STM fold change", "setting": "BA 5.0 μM, 15 min, AS21, ↑ up", "value": "9.44↑"}, {"measurement": "STM fold change", "setting": "BA 5.0 μM, 15 min, OE1, ↓ down", "value": "2.11↓"}, {"measurement": "STM fold change", "setting": "BA 5.0 μM, 15 min, OE12, ↓ down", "value": "2.13↓"}, {"measurement": "STM fold change", "setting": "BA 5.0 μM, 15 min, OE18, ↓ down", "value": "3.28↓"}, {"measurement": "STM fold change", "setting": "BA 5.0 μM, 15 min, Wild type, ↑ up", "value": "5.89↑"}, {"measurement": "STM fold change", "setting": "BA 5.0 μM, 30 min, AS1, ↑ up", "value": "6.43↑"}, {"measurement": "STM fold change", "setting": "BA 5.0 μM, 30 min, Wild type, ↑ up", "value": "5.99↑"}, {"measurement": "STM transcripts, dose dependence", "setting": "BA 0.01-5 μM pulse, 5 min-1 h", "value": "dose-dependent increase"}]}
